Measurements as given in article PMC8640510 (Cell Death and Differentiation, 2021).
“Also recorded” adds a separate entry of the source.

Biological target: SARS-CoV-2 NSP14/10 complex (ExoN activity) (Severe acute respiratory syndrome coronavirus 2, UniProt P0DTD1)
Assay: biochemical
Format: biochemical

| Compound | NSP14/10-inhibitory activity (in words) | IC50 [µM] |
| --- | --- | --- |
| Cc1ccc2ccc(C(=O)O)c(O)c2n1 [#38] | no observed inhibition; also recorded: does not inhibit NSP14 |  |
| CC(C)=CCc1c(O)ccc(C(=O)/C=C/c2ccc(O)cc2)c1O [#96, Isobavachalcone] |  | 17.4 ± 1.39 |
| CC(C)=CCOc1ccc(/C=C/C(=O)c2ccc(OCC=C(C)C)cc2OCC(=O)O)cc1 [#102, Sofalcone, reference compound] |  | 22 ± 6.02 |
| C[C@@H]1CCO[C@H]2Cn3cc(C(=O)NCc4ccc(F)cc4F)c(=O)c(O)c3C(=O)N12 [Dolutegravir, reference compound] | detectable NSP14/10-inhibitory activities |  |
| O=C1Cc2ccccc2C(=O)N1O [N-Hydroxy-isoquinoline-1,3-dione, reference compound] | detectable NSP14/10-inhibitory activities |  |
